Data from patent US6413983B1, “Benzopyranyl heterocycle derivatives, process for preparation thereof, and pharmaceutical compositions containing them” (Dongbu Hannong Chemical Co. Ltd., priority 2000, dated 2002).

Tests used:
in vivo = conditions: SD, rat, po, 1 g/kg
Description: In this test six-week old SPF SD rats were used with two rats assigned to each group. […] The dosing volume was 10 ml/kg. […] All survivors at the end of the observation period underwent laparotomy under ether anesthesia and the blood samples were taken from the abdominal aorta for hematological tests and biochemical analysis. After sacrificing the animals, autopsy was performed for macroscopic observation of the organs and tissues. Tissue samples of vital organs from macroscopic legion were removed and fixed in 10% neutral buffered formalin solution, then processed by standard procedures for histopathology and examined under light microscope.

rat brain homogenate = assay: Inhibitory activity against iron-induced lipid peroxidation (MDA quantification); assay type: biochemical; conditions: 100 μM compound, 400 μM FeCl2, 37° C., 30 min, MDA reduction rate vs control
Description: The rat brain was homogenized in a Krebs buffer (15 mM HEPES, 10 mM glucose, 140 mM NaCl, 3.6 mM KCl, 1.5 mM CaCl2, 1.4 mM KH2PO4, 0.7 mM MgCl2, pH 7.4) and the supernatant separated by centrifugation at 12,000 rpm for 10 min was used for further experiments. FeCl2 was added to a final concentration of 400 μM in the brain homogenate which was then allowed to stand at 37° C. for 30 min for the facilitation of oxidation. Each of the test compounds was added at a concentration of 100 μM and vehicle was used as a control.
Iron facilitates the oxidation of the brain homogenate to produce malondialdehyde (MDA), a lipid peroxidation product. Thus, the lipid peroxidation was determined by MDA quantification. The inhibitory effect of the test compounds against the lipid peroxidation was evaluated by calculating MDA reduction rate of the test compounds compared with that of the control group.
Typically, the MDA quantification is achieved by reacting samples with 2-thiobarbituric acid (TBA) and measuring the absorbance at 530 nm. However, this method is unsuitable to treat samples on a large scale because of a boiling step. Thus, in this experiment, N-methyl-2-phenylindole was used instead of TBA. […] Bioxytech^R LPO-586 Kit was used for MDA quantification.

[1] = test system: cerebral cortical neurons; assay: Protective activity for neuronal cells against iron-induced damage (LDH release); assay type: cell-based, rat; conditions: 30 μM compound, 50 uM FeSO4, 24 hours, LDH reduction rate vs control
Description: From the brains of 17-18 day-old rat embryos, cerebral cortical neurons were isolated and then, cultured at 37° C. for 7-9 days in a 5% CO2 incubator. The cortical cell cultures were washed twice with a minimum essential medium (MEM) to reduce the serum concentration to 0.2% and pre-treated for 30 min with 30 μM of each of test compounds. For the experiments, the test compounds were dissolved in DMSO and diluted in a medium. At this time, the final concentration of DMSO was not allowed to exceed 0.2%. For a control group, only vehicle was applied.
After the pre-treatment with test compounds or vehicle, FeSO4 was added to a final concentration of 50 uM, and the cultures were maintained for 24 hours in a CO2 incubator. During incubation, lactate dehydrogenase (LDH) was released into the medium upon neuronal death by the oxidative toxicity of iron. The extent of neuronal damage was assessed by measuring the amount of LDH released into the media. The protective effect of the compounds of interest on neurons was evaluated by calculating the LDH reduction rate of treatment group compared with that of the control group.

## COC(OC)[C@@]1(C)Oc2ccc([N+](=O)[O-])cc2[C@H](N2c3ccccc3C[C@H]2C(=O)OC(C)C)[C@H]1O [Example 10, 1-[(2S, 3R, 4S)-3,4-dihydro-2-dimethoxymethyl-3-hydroxy-2-methyl-6-nitro-2H-1-benzopyran-4-yl]-(2S)-2,3-dihydro-1H-indole-2-carboxylic acid isopropyl ester]
In vivo
  LD50: > 1000 mg/kg

## CCCOC(=O)[C@H]1Cc2ccccc2N1[C@@H]1c2cc([N+](=O)[O-])ccc2O[C@@](C)(C(OC)OC)[C@H]1O [Example 34, 1[-(2R, 3S, 4R)-3,4-dihydro-2-dimethoxymethyl-3-hydroxy-2-methyl-6-nitro-2H-1-benzopyran-4-yl]-(2R)-2,3-dihydro-1H-indole-2-carboxylic acid n-propyl ester]
In vivo
  LD50: > 1000 mg/kg

## CCOC(=O)[C@@H]1Cc2ccccc2N1[C@@H]1c2cc(N)ccc2O[C@](C)(C(OC)OC)[C@H]1O [Example 45, 1-[(2S, 3S, 4R)-6-amino-3,4-dihydro-2-dimethoxymethyl-3-hydroxy-2-methyl-2H-1-benzopyran-4-yl]-(2S)-2,3-dihydro-1H-indole-2-carboxylic acid ethyl ester]
Rat brain homogenate
  % Inhibition: 81%
[1]; listed as EX. 45
  % Protection: 96%

## CCOC(=O)c1cc2ccccc2n1[C@H]1c2cc(N)ccc2O[C@](C)(C(OC)OC)[C@@H]1O [Example 52, 1-[(2S, 3R, 4S)-6-amino-3,4-dihydro-2-dimethoxymethyl-3-hydroxy-2-methyl-2H-1-benzopyran-4-yl]-1H-indole-2-carboxylic acid ethyl ester]
Rat brain homogenate; listed as EX. 52
  % Inhibition: 95%
[1]
  % Protection: 100%
